How the values were obtained:
Experiment in all cases: relative viability (nuclei count vs DMSO), 5 days (fraction); higher = more cells survive
Avagacestat + Phenformin = compound: NC(=O)[C@@H](CCC(F)(F)F)N(Cc1ccc(-c2ncon2)cc1F)S(=O)(=O)c1ccc(Cl)cc1 [Avagacestat] + N=C(N)NC(=N)NCCc1ccccc1 [Phenformin] (partner 250 µM)
Summary of the method: (§1)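 After 5 days of treatment, lung cancer cells in 1536-well plates were fixed and stained in a single step (final 0.05% Triton X-100, 1% formaldehyde, 1 ug/ml Hoechst) and their nuclei counted on 4× images. Treatment had been applied by pin tool the day after seeding as one drug alone or as a fixed anchor-drug dose with five library-drug doses (not always all listed) in √10 steps. Relative viability is the nuclei count of treated wells divided by that of vehicle wells, and values are medians of duplicate plates.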

Avagacestat + OSI-027 = compound: NC(=O)[C@@H](CCC(F)(F)F)N(Cc1ccc(-c2ncon2)cc1F)S(=O)(=O)c1ccc(Cl)cc1 [Avagacestat] + COc1cccc2cc(-c3nc([C@H]4CC[C@H](C(=O)O)CC4)n4ncnc(N)c34)[nH]c12 [OSI-027] (partner 0.5 µM)
Summary of the method: as §1

Avagacestat + Trametinib = compound: NC(=O)[C@@H](CCC(F)(F)F)N(Cc1ccc(-c2ncon2)cc1F)S(=O)(=O)c1ccc(Cl)cc1 [Avagacestat] + CC(=O)Nc1cccc(-n2c(=O)n(C3CC3)c(=O)c3c(Nc4ccc(I)cc4F)n(C)c(=O)c(C)c32)c1 [Trametinib] (partner 0.02 µM)
Summary of the method: as §1

Avagacestat + Crizotinib = compound: NC(=O)[C@@H](CCC(F)(F)F)N(Cc1ccc(-c2ncon2)cc1F)S(=O)(=O)c1ccc(Cl)cc1 [Avagacestat] + C[C@@H](Oc1cc(-c2cnn(C3CCNCC3)c2)cnc1N)c1c(Cl)ccc(F)c1Cl [Crizotinib] (partner 1 µM)
Summary of the method: as §1

| Cell Line | relative viability (Avagacestat + Phenformin; first compound 0.08 µM) | relative viability (Avagacestat + Phenformin; first compound 0.253 µM) | relative viability (Avagacestat + Phenformin; first compound 0.8 µM) | relative viability (Avagacestat + Phenformin; first compound 2.53 µM) | relative viability (Avagacestat + Phenformin; first compound 8 µM) | relative viability (Avagacestat + OSI-027; first compound 0.08 µM) | relative viability (Avagacestat + OSI-027; first compound 0.253 µM) | relative viability (Avagacestat + OSI-027; first compound 0.8 µM) | relative viability (Avagacestat + OSI-027; first compound 2.53 µM) | relative viability (Avagacestat + OSI-027; first compound 8 µM) | relative viability (Avagacestat + Trametinib; first compound 0.08 µM) | relative viability (Avagacestat + Trametinib; first compound 0.253 µM) | relative viability (Avagacestat + Trametinib; first compound 0.8 µM) | relative viability (Avagacestat + Trametinib; first compound 2.53 µM) | relative viability (Avagacestat + Trametinib; first compound 8 µM) | relative viability (Avagacestat + Crizotinib; first compound 0.08 µM) | relative viability (Avagacestat + Crizotinib; first compound 0.253 µM) | relative viability (Avagacestat + Crizotinib; first compound 0.8 µM) | relative viability (Avagacestat + Crizotinib; first compound 2.53 µM) | relative viability (Avagacestat + Crizotinib; first compound 8 µM) |
| --- | --- | --- | --- | --- | --- | --- | --- | --- | --- | --- | --- | --- | --- | --- | --- | --- | --- | --- | --- | --- |
| NCI-H650 | 0.484 | 0.456 | 0.461 | 0.524 | 0.41 | 0.638 | 0.472 | 0.576 | 0.573 | 0.445 | 1.02 | 1.06 | 0.988 | 1 | 1.06 | 0.625 | 0.762 | 0.692 | 0.744 | 0.823 |
| NCI-H661 | 0.301 | 0.293 | 0.298 | 0.296 | 0.3 | 0.786 | 0.775 | 0.694 | 0.704 | 0.669 | 0.589 | 0.632 | 0.604 | 0.548 | 0.521 | 1.12 | 1.06 | 1.05 | 1.3 | 0.968 |
| NCI-H727 | 0.684 | 0.489 | 0.778 | 0.421 | 0.613 | 0.675 | 0.632 | 0.92 | 0.521 | 0.517 | 0.443 | 0.452 | 0.387 | 0.434 | 0.499 | 0.986 | 0.956 | 1.08 | 0.946 | 0.775 |
| NCI-H838 | 0.622 | 0.537 | 0.598 | 0.509 | 0.484 | 0.364 | 0.466 | 0.389 | 0.398 | 0.366 | 0.534 | 0.607 | 0.559 | 0.442 | 0.495 | 0.932 | 1.09 | 0.906 | 0.858 | 0.764 |
| NCI-H1355 | 0.499 | 0.441 | 0.465 | 0.422 | 0.41 | 0.404 | 0.388 | 0.426 | 0.38 | 0.342 | 0.449 | 0.393 | 0.447 | 0.386 | 0.366 | 1.19 | 1.14 | 0.997 | 0.872 | 0.866 |
| NCI-H1437 | 0.382 | 0.378 | 0.342 | 0.266 | 0.287 | 0.924 | 0.949 | 0.817 | 0.856 | 0.777 | 0.518 | 0.668 | 0.575 | 0.398 | 0.436 | 1.14 | 1.1 | 1.12 | 1.05 | 0.824 |
| NCI-H1650 | 0.446 | 0.416 | 0.484 | 0.455 | 0.412 | 0.49 | 0.671 | 0.643 | 0.782 | 0.67 | 0.696 | 0.614 | 0.73 | 0.678 | 0.588 | 1.07 | 0.967 | 1.37 | 0.916 | 1.06 |
| NCI-H1651 | 0.321 | 0.343 | 0.358 | 0.293 | 0.354 | 0.761 | 0.814 | 0.848 | 0.751 | 0.656 | 0.884 | 0.93 | 0.838 | 0.842 | 0.813 | 1 | 0.928 | 0.896 | 0.879 | 0.863 |
| NCI-H1666 | 0.686 | 0.639 | 0.619 | 0.603 | 0.603 | 1.2 | 0.933 | 1.1 | 0.911 | 0.905 | 1.29 | 1.04 | 1.02 | 0.991 | 0.748 | 1.3 | 1.09 | 1.23 | 1.03 | 0.957 |
| NCI-H1734 | 0.451 | 0.433 | 0.366 | 0.373 | 0.384 | 0.612 | 0.713 | 0.643 | 0.552 | 0.515 | 0.776 | 0.796 | 0.682 | 0.71 | 0.633 | 0.969 | 0.755 | 0.705 | 0.733 | 0.575 |
| NCI-H1755 | 0.714 | 0.652 | 0.655 | 0.623 | 0.577 | 0.816 | 0.748 | 0.742 | 0.654 | 0.579 | 0.837 | 0.884 | 0.8 | 0.777 | 0.729 | 1.04 | 1.01 | 0.928 | 0.865 | 0.832 |
| NCI-H1792 | 0.474 | 0.304 | 0.391 | 0.19 | 0.304 | 1.03 |  | 0.628 |  | 0.677 | 0.534 | 0.641 | 0.491 | 0.373 | 0.439 | 1.42 | 1.33 | 1.45 | 0.992 | 0.805 |
| NCI-H1915 | 0.396 | 0.396 | 0.368 | 0.412 | 0.357 | 0.744 | 0.639 | 0.596 | 0.582 | 0.568 | 0.29 | 0.305 | 0.254 | 0.3 | 0.252 | 0.924 | 1.15 | 0.964 | 0.912 | 0.889 |
| NCI-H1944 | 0.231 | 0.236 | 0.226 | 0.18 | 0.204 | 0.394 | 0.501 | 0.404 | 0.343 | 0.38 | 0.426 | 0.436 | 0.373 | 0.394 | 0.382 | 1.09 | 1.2 | 0.958 | 0.915 | 0.919 |

Source: the supplement of paper PMC10307832
